From US10669266B2, “Oxadiazole inhibitors of HIPK2 for treating kidney fibrosis” (ICAHN SCHOOL OF MEDICINE AT MOUNT SINAI, priority 2017, dated 2020)
Where two headings read alike, the source gives them in different places.

Columns and labels:
HIPK2 [1] = biological target: T1, HIPK2 (Homo sapiens, UniProt Q9H2X6); assay: Drug affinity responsive target stability (DARTS) with pronase in 293T lysates; format: binding; set-up: endogenous in cells; host or cells: HEK 293T cell lysate; settings: 1:10,000 pronase/cell lysate ratio
Method: Drug affinity responsive target stability (DARTS) method was used to identify protein targets of test compound as described previously by Pai et al. [Methods Mol Biol, 1263: 287-298, 2015]. Briefly, 293T lysates were incubated with test compound at room temperature for 1 hour. After incubation, cell lysates were subjected to proteolysis with various concentrations of pronase (#10165921001, Roche) at room temperature for 20 minutes. Proteolysis was stopped by addition of 5× protein loading buffer and heating at 90° C. for 5 minutes. Protein samples were subjected to western blot analysis.
Drug affinity responsive target stability (DARTS) has recently been developed to identify potential protein targets of small molecules. It is based on the principle that the binding of small molecule compound to the target protein changes the protein structure such that it can increase its stability and confer protection against proteolysis. In order to test whether compounds of the invention bind directly to HIPK2, we performed the DARTS experiments using pronase in presence of Example 1. […] Because HIPK2 abundance is quite low in many known cell types, we overexpressed His6-tagged HIPK2 in 293T cells for testing its interaction with the endogenous Smad3. The expression of His6-HIPK2 and Smad3 in 293T cells was confirmed by western blot. We pulled down His6-HIPK2 using cobalt beads and checked for the presence of Smad3 in cells treated with two different doses of Example 1.

UUO mice = assay: Unilateral ureteral obstruction (UUO) mouse model of renal fibrosis; format: in vivo; settings: for fibrosis at 14 days post-surgery (picosirius red, Masson's trichrome, Collagen I immunofluorescence): administration starting at day 7 post-surgery (day 7 to 14)
Method: Tg26 mice of FVB/N genetic background bearing a defective HIV-1 provirus lacking gag-pol have been described by Feng et al. [J Am Soc Nephrol 2009; 20: 2138-2146]. Six-week old heterozygous Tg26 mice were used in this study. Wildtype littermates were used as controls. Mice in the treatment group received test compound dissolved in DMSO and diluted in saline (5% DMSO) by oral gavage at a dose of 200 μg/kg body weight per day. Mice in the control group received the same volume of 5% DMSO/saline vehicle. The mice were treated for a total of 4 weeks and sacrificed at age of 10 weeks. The UUO model was established in male C57BL/6 mice (The Jackson Laboratory) by ligation of the left ureter as described by Jin et al. [Lab Invest, 93: 801-811, 2013]. After the operation, UUO mice were randomly divided into control group (vehicle) and treatment group. Mice were fed with test compound by oral gavage at a dose of 200 μg/kg body weight per day for 7 days.
Immunofluorescence staining was conducted on paraffin-embedded kidney sections using standard procedures. Briefly, deparaffinized sections were incubated with primary antibody against collagen I (1:50, #NB6-00-4-8, Novus) at 4° C. overnight. After being washed, sections were incubated with Alexa Fluor488-labelled second antibody (1:200, #A11034, Invitrogen) at room temperature for 1 hour in darkness. After nuclei were stained with 4′, 6-diamidino-2-phenyllindole (DAPI) slides were mounted using Aqua PolyMount (Polysciences, Inc) and images were acquired using AxioVision IIe microscope with a digital camera.
Renal fibrosis was evaluated histologically by Sirius red staining on paraffin slides of mice kidney tissues according to the manufacturer's instructions (#ab150681, Abcam). Masson's trichrome staining on paraffin slices of mice kidney tissue was performed according to manufacturer's instructions (#87019, Thermo Scientific).
The unilateral ureteral obstruction (UUO) mouse model, a commonly used model for renal fibrosis, was used to determine whether compounds of the invention can ameliorate fibrosis in vivo. […]

[2] = tested on: Smad3-responsive luciferase reporter (SBE4-Luc); settings: for suppression of Smad3 reporter activity, inhibition compared to DMSO control: absence of TGF-β1 stimulation
Method: Human primary tubular cells (PromoCell GmbH, Heidelberg, Germany) were cultured in Renal Epithelial Cell Growth Medium-2 (Promocell GmbH) with supplements according to manufacturer's protocol human primary renal tubular epithelial cells with <5 passages were used for all studies. For HIV infection of hRTECs, pNL4-3:ΔG/P-EGFP, a gag/poi-deleted HIV-1 construct that contains EGFP in the gag open reading frame, and pHR-IRES-EGFP, a control EGFP construct, were used to generate the VSV-G pseudotyped virus. Cells were infected with HIV pseudotyped virus or control virus for 2 days before the treatment with test compound.
Renilla luciferase reporter plasmid (pRL) was purchased from Promega.
Forty-eight hours post-transfection cells were treated with assigned concentrations of test compound together with or without 10 ng/ml TGF-β1 for 16 hours. Luciferase activities were measured using the Dual-Luciferase Reporter Assay kit (Promega, #E1910). Data are expressed as the ratio of firefly luciferase activity over Renilla luciferase activity. […] 48 hours after transfection, luciferase activities were measured.

[3] = tested on: lactate dehydrogenase (LDH) level in cell culture medium; assay: LDH cytotoxicity assay of cell culture medium; format: cell-based; settings: up to 30 μM, 16 hours of incubation
Method: Medium LDH measurement was performed using LDH Cytotoxicity Assay Kit (ThermoFisher scientific, NY) according to manufacturer's instructions.
In order to rule out the possibility that the reduction in Smad3 activity is due to the cytotoxicity of increasing concentration of compound, lactate dehydrogenase (LDH) level in cell culture medium was examined. LDH is released by damaged cells.

HIPK2 [4] = biological target: T1, HIPK2; assay: HIPK2 kinase assay (ProQinase GmbH); format: biochemical; set-up: purchased ProQinase GmbH (Freiburg, Germany), assay service; settings: increasing concentrations
Method: HIPK2 kinase assay was performed by ProQinase GmbH (Freiburg, Germany).
Kinase assay was performed by ProQinase GmbH (Freiburg, Germany).

T1 sequence (Q9H2X6 whole entry): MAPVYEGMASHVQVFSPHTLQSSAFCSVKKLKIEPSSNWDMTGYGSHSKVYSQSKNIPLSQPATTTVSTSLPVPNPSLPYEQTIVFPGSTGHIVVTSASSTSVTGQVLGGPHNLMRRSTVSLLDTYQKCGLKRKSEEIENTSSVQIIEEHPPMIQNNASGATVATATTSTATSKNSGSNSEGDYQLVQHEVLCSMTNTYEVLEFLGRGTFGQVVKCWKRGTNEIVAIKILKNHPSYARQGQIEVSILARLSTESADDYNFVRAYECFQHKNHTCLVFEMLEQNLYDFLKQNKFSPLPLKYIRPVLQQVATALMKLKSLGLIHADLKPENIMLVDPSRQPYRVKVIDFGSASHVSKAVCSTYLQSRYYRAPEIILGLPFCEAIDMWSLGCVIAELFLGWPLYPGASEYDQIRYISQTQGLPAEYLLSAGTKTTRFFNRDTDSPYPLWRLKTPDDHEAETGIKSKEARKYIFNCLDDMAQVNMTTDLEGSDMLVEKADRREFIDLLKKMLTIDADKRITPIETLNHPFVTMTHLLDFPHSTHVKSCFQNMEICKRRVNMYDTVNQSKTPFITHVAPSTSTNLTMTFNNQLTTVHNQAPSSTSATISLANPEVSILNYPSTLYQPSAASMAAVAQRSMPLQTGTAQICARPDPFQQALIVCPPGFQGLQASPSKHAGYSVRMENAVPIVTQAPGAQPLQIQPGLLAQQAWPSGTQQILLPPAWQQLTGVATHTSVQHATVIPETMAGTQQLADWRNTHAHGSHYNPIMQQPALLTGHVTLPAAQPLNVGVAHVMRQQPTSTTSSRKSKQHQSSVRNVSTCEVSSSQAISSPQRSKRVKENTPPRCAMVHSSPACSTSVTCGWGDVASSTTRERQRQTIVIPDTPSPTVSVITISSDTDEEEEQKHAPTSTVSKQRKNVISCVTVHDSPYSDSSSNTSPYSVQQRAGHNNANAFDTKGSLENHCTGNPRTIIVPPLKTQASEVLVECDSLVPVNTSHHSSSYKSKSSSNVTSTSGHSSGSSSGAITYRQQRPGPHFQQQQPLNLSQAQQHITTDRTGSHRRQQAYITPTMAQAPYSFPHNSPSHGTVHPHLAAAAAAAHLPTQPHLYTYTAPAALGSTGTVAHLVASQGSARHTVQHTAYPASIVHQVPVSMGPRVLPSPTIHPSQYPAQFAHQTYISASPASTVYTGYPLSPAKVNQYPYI

## COc1ccc2cc(-c3nc(-c4ccc(Br)cc4)no3)cnc2c1 [Example 1, 3-(4-Bromophenyl)-5-(7-methoxyquinolin-3-yl)-1,2,4-oxadiazole]
HIPK2 [1]; 30 μm
  protection of HIPK2 from pronase digestion (DARTS): partial protection
HIPK2 [1]; 100 μm
  protection of HIPK2 from pronase digestion (DARTS): complete protection
HIPK2 [1]; versus DMSO control
  protection of HIPK2 from pronase degradation (DARTS): protected from degradation
UUO mice; UUO kidneys, treatment day 7 to 14
  expression of Wnt/β-catenin pathway genes (Axin2, c-myc, Twist), real-time PCR: significantly diminished
UUO mice; UUO mice, 200 μg/kg/day oral gavage, day of surgery to 7 days post-surgery
  Smad3 phosphorylation and α-SMA expression in UUO kidneys (western blot): significantly decreased
UUO mice; UUO mice, 200 μg/kg/day oral gavage, day of surgery to 7 days post-surgery, vs vehicle
  renal fibrosis (picrosirius red, Masson's trichrome, Collagen I immunofluorescence): significantly attenuated renal fibrosis
UUO mice; UUO mice, listed as BT173
  fibrosis at 14 days post-surgery (picosirius red, Masson's trichrome, Collagen I immunofluorescence): significant attenuation of fibrosis
UUO mice; UUO mice, listed as Example I
  fibrosis at 14 days post-surgery (picosirius red, Masson's trichrome, Collagen I immunofluorescence): showed efficacy in amelioration of fibrosis progression
UUO mice; UUO mice, treatment day 7 to 14
  p53 activation (phosphorylation) in UUO kidneys: no effects
UUO mice; UUO mice, treatment day 7 to 14, vs vehicle-treated UUO kidneys
  p-Smad3 and α-SMA in kidney cortex (western blot): marked reduction
[2]
  Luciferase Activity (Relative to DMSO control) −TGFβ: 0.197
[2]; 3.3 μm
  suppression of Smad3 reporter activity, inhibition compared to DMSO control: ~40%
[2]; 10 μm
  suppression of Smad3 reporter activity, inhibition compared to DMSO control: ~70%
[2]; presence of TGF-β1, first of three tested doses
  SBE4-luciferase activity, inhibition compared to TGFβ1-treated only control: ~40%
[2]; presence of TGF-β1, second of three tested doses
  SBE4-luciferase activity, inhibition compared to TGFβ1-treated only control: ~60%
[2]; presence of TGF-β1, third of three tested doses
  SBE4-luciferase activity, inhibition compared to TGFβ1-treated only control: ~75%
[3]
  LDH level in the culture medium: no significant increase
HIPK2 [4]
  inhibition of HIPK2 kinase activity: No inhibition
